Measurements reported in patent publication US6737383B1, “Herbicidal oxadiazolidines” (priority 1999, dated 2004).

Tests used:
[1] = system: surinam grass; assay: Test B pre/postemergence surinam grass; type: in vivo, Brachiaria decumbens
In short: (§1)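 Response is a visual 0-to-10 score relative to untreated plants, where 0 means no effect and 10 means complete control, taken twelve to sixteen days after application. Treatments went onto soil at planting and onto foliage of 1- to 4-leaf plants, using a surfactant-containing non-phytotoxic solvent.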

[2] = system: cocklebur; assay: Test B pre/postemergence cocklebur; type: in vivo, Xanthium strumarium
In short: as §1

[3] = system: corn; assay: Test B pre/postemergence corn; type: in vivo, Zea mays
In short: as §1

[4] = system: crabgrass; assay: Test B pre/postemergence crabgrass; type: in vivo, Digitaria sanguinalis
In short: as §1

[5] = system: giant foxtail; assay: Test B pre/postemergence giant foxtail; type: in vivo, Setaria faberii
In short: as §1

[6] = system: morningglory; assay: Test B pre/postemergence morningglory; type: in vivo, Ipomoea hederacea
In short: as §1

[7] = system: pigweed; assay: Test B pre/postemergence pigweed; type: in vivo, Amaranthus retroflexus
In short: as §1

[8] = system: rape; assay: Test B pre/postemergence rape; type: in vivo, Brassica napus
In short: as §1

[9] = system: soybean; assay: Test B pre/postemergence soybean; type: in vivo, Glycine max
In short: as §1

[10] = system: sugar beet; assay: Test B pre/postemergence sugar beet; type: in vivo, Beta vulgaris
In short: as §1

[11] = system: wild oat; assay: Test B pre/postemergence wild oat; type: in vivo, Avena fatua
In short: as §1

[12] = system: purple nutsedge; assay: Test B pre/postemergence purple nutsedge; type: in vivo, Cyperus rotundus
In short: as §1

[13] = system: rice; assay: Test B flood test rice; type: in vivo, Oryza sativa
In short: (§2)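 Each value is a visual injury score relative to controls, with 10 meaning complete control and 0 no effect. Evaluation took place twelve to sixteen days after the 2-leaf-stage plants were treated and kept in the greenhouse.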

[14] = system: smallflower flatsedge; assay: Test B flood test smallflower flatsedge; type: in vivo, Cyperus difformis
In short: as §2

[15] = system: duck salad; assay: Test B flood test duck salad; type: in vivo, Heteranthera limosa; conditions: for Plant response rating, Ducksalad: scale 0 to 10, 0 is no effect, 10 is complete control; for Ducksalad plant response rating: scale of 0 to 10 where 0 is no effect and 10 is complete control
In short: as §2

[16] = system: bamyardgrass; assay: Test B flood test barnyardgrass; type: in vivo, Echinochloa crus-galli; conditions: for Plant response rating, Barnyardgrass: scale 0 to 10, 0 is no effect, 10 is complete control; for Barnyardgrass plant response rating: scale of 0 to 10 where 0 is no effect and 10 is complete control
In short: as §2

[17] = Postemergence, Rate 125 g/ha, scale 0 to 10, 0 is no effect, 10 is complete control
[18] = Postemergence, Rate 250 g/ha, scale 0 to 10, 0 is no effect, 10 is complete control
[19] = Postemergence, Rate 500 g/ha, scale of 0 to 10 where 0 is no effect and 10 is complete control
[20] = Preemergence, Rate 62 g/ha, scale 0 to 10 (0 no effect, 10 complete control)
[21] = Preemergence, Rate 125 g/ha, scale of 0 to 10 where 0 is no effect and 10 is complete control
[22] = Rate 62 g/ha, Postemergence, scale of 0 to 10 where 0 is no effect and 10 is complete control
[23] = Preemergence, Rate 250 g/ha, scale 0 to 10, 0 is no effect, 10 is complete control
[24] = Preemergence, Rate 500 g/ha, scale 0 to 10, 0 is no effect, 10 is complete control
[25] = Postemergence section (flood test species), Rate 500 g/ha, scale of 0 to 10 where 0 is no effect and 10 is complete control
[26] = flood test species, listed under Postemergence, Rate 250 g/ha, scale 0 to 10, 0 is no effect, 10 is complete control
[27] = Postemergence (flood test), Rate 125 g/ha
[28] = Postemergence section (flood test species), Rate 500 g/ha
[29] = Rate 62 g/ha, Postemergence (flood test species)
[30] = flood test species, listed under Postemergence, Rate 250 g/ha

CC(C)N(C(=O)n1oc(=O)n(CC2(C)COC2)c1=O)c1ccccc1 [Compound 420]
8: B. signalgrass plant response rating ([1]; Preemergence, Rate 500 g/ha, scale of 0 to 10 where 0 is no effect and 10 is complete control) | Plant response rating, Crabgrass [4, 18] | Crabgrass plant response rating [4, 19] | Plant response rating, Giant foxtail [5, 17] | Plant response rating, Giant foxtail [5, 18] | Morningglory plant response rating [6, 24] | Rape plant response rating [8, 24]
0: B. signalgrass plant response rating [1, 22] | Plant response rating, Cocklebur [2, 17] | Plant response rating, Cocklebur [2, 18] | Cocklebur plant response rating [2, 19] | Plant response rating, Cocklebur [2, 20] | Plant response rating, Cocklebur [2, 21] | Cocklebur plant response rating [2, 23] | Cocklebur plant response rating [2, 24] | Cocklebur plant response rating [2, 22] | Plant response rating, Corn [3, 17] | Plant response rating, Corn [3, 18] | Corn plant response rating [3, 19] | Plant response rating, Corn [3, 20] | Plant response rating, Corn [3, 21] | Corn plant response rating [3, 23] | Corn plant response rating [3, 22] | Plant response rating, Morningglory [6, 20] | Plant response rating, Morningglory [6, 21] | Plant response rating, Redroot pigweed [7, 18] | Redroot pigweed plant response rating [7, 19] | Plant response rating, Redroot pigweed [7, 20] | Plant response rating, Rape [8, 18] | Rape plant response rating [8, 19] | Plant response rating, Rape [8, 20] | Plant response rating, Rape [8, 21] | Rape plant response rating [8, 23] | Plant response rating, Soybean [9, 20] | Plant response rating, Soybean [9, 21] | Soybean plant response rating [9, 23] | Soybean plant response rating [9, 24] | Plant response rating, Sugarbeets [10, 18] | Sugarbeets plant response rating [10, 19] | Plant response rating, Sugarbeets [10, 20] | Plant response rating, Sugarbeets [10, 21] | Plant response rating, Wild oats [11, 20] | Plant response rating, Nutsedge [12, 18] | Nutsedge plant response rating [12, 19] | Plant response rating, Nutsedge [12, 20] | Plant response rating, Nutsedge [12, 21] | Nutsedge plant response rating [12, 23] | Rice plant response rating [13, 25] | Plant response rating, Rice [13, 26] | S. Flatsedge plant response rating [14, 25] | Plant response rating, S. Flatsedge [14, 26] | Plant response rating, Ducksalad [15, 27] | Ducksalad plant response rating [15, 28] | Ducksalad plant response rating [15, 29] | Plant response rating, Ducksalad [15, 30] | Plant response rating, Barnyardgrass [16, 27] | Barnyardgrass plant response rating [16, 28] | Barnyardgrass plant response rating [16, 29] | Plant response rating, Barnyardgrass [16, 30]
3: Plant response rating, Soybean [9, 18] | Sugarbeets plant response rating [10, 24]
7: B. signalgrass plant response rating [1, 19] | Plant response rating, Crabgrass [4, 20] | Giant foxtail plant response rating [5, 22]
2: Plant response rating, B. signalgrass [1, 17] | Plant response rating, B. signalgrass [1, 20] | Plant response rating, B. signalgrass [1, 21] | Corn plant response rating [3, 24] | Plant response rating, Crabgrass [4, 17] | Crabgrass plant response rating [4, 22] | Morningglory plant response rating [6, 23] | Plant response rating, Redroot pigweed [7, 21] | Redroot pigweed plant response rating [7, 23] | Sugarbeets plant response rating [10, 23] | Wild oats plant response rating [11, 19] | Plant response rating, Wild oats [11, 21] | Wild oats plant response rating [11, 23]
10: Crabgrass plant response rating [4, 24] | Giant foxtail plant response rating [5, 23] | Giant foxtail plant response rating [5, 24] | Morningglory plant response rating [6, 19] | Nutsedge plant response rating [12, 24]
4: Plant response rating, Morningglory [6, 18] | Soybean plant response rating [9, 19]
9: Plant response rating, Crabgrass [4, 21] | Crabgrass plant response rating [4, 23] | Giant foxtail plant response rating [5, 19] | Plant response rating, Giant foxtail [5, 21]
5: Plant response rating, B. signalgrass [1, 18] | Plant response rating, Giant foxtail [5, 20] | Redroot pigweed plant response rating [7, 24] | Wild oats plant response rating [11, 24]
6: B. signalgrass plant response rating ([1]; Preemergence, Rate 250 g/ha, scale of 0 to 10 where 0 is no effect and 10 is complete control)
